How the values were obtained:
FYN = target: T1, FYN (Homo sapiens, UniProt P06241); experiment: HotSpot in vitro kinase radiometric assay; format: biochemical
T1 construct: purchased Reaction Biology (HotSpot contract assay)

YES/YES1 = target: T2, YES/YES1 (Homo sapiens, UniProt P07947); experiment: HotSpot in vitro kinase radiometric assay; format: biochemical
T2 construct: purchased Reaction Biology (HotSpot contract assay)

TRKC = target: T3, TRKC (Homo sapiens, UniProt Q16288); experiment: HotSpot in vitro kinase radiometric assay; format: biochemical
T3 construct: purchased Reaction Biology (HotSpot contract assay)

DDR1 = DDR1 (Homo sapiens, UniProt Q08345); experiment: HotSpot in vitro kinase radiometric assay; format: biochemical; parameters: purchased Reaction Biology (HotSpot contract assay)
FGR = target: T4, FGR (Homo sapiens, UniProt P09769); experiment: HotSpot in vitro kinase radiometric assay; format: biochemical
T4 construct: purchased Reaction Biology (HotSpot contract assay)

PDK2/PDHK2 = target: T5, PDK2/PDHK2 (Homo sapiens, UniProt Q15119); experiment: HotSpot in vitro kinase radiometric assay; format: biochemical
T5 construct: purchased Reaction Biology (HotSpot contract assay)
How it was run: (§1)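 Off-target screen in a radioisotope catalytic assay: test compounds incubated with each kinase, its substrate, cofactors and 33P- or 32P-labelled ɣ-ATP. Filters retaining labelled product gave the signal.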

PDK4/PDKH4 = target: T6, PDK4/PDKH4 (Homo sapiens, UniProt Q16654); experiment: HotSpot in vitro kinase radiometric assay; format: biochemical
T6 construct: purchased Reaction Biology (HotSpot contract assay)
How it was run: as §1

LYN B = target: T7, LYN B (Homo sapiens, UniProt P07948); experiment: HotSpot in vitro kinase radiometric assay; format: biochemical
T7 construct: purchased Reaction Biology (HotSpot contract assay)
How it was run: as §1

BLK = target: T8, BLK (Homo sapiens, UniProt P51451); experiment: HotSpot in vitro kinase radiometric assay; format: biochemical
T8 construct: purchased Reaction Biology (HotSpot contract assay)
How it was run: as §1

c-Src = target: T9, c-Src (Homo sapiens, UniProt P12931); experiment: HotSpot in vitro kinase radiometric assay; format: biochemical
T9 construct: purchased Reaction Biology (HotSpot contract assay)
How it was run: as §1

LCK = target: T10, LCK (Homo sapiens, UniProt P06239); experiment: HotSpot in vitro kinase radiometric assay; format: biochemical
T10 construct: purchased Reaction Biology (HotSpot contract assay)

PIM1 = tested on: PIM1; parameters: method as in ChEMBL23 (accessed: 23/08/2018); details: average of reported values; ref ChEMBL23 (accessed: 23/08/2018); cited from earlier work
LTK = tested on: LTK; parameters: method as in ChEMBL23 (accessed: 23/08/2018); details: average of reported values; ref ChEMBL23 (accessed: 23/08/2018); cited from earlier work
HSP90AB1 = tested on: HSP90AB1; parameters: method as in ChEMBL23 (accessed: 23/08/2018); details: average of reported values; ref ChEMBL23 (accessed: 23/08/2018); cited from earlier work
ABL1 = ABL1 (Homo sapiens, UniProt P00519); experiment: HotSpot in vitro kinase radiometric assay; format: biochemical; parameters: purchased Reaction Biology (HotSpot contract assay)
ABL2/ARG = target: T11, ABL2/ARG (Homo sapiens, UniProt P42684); experiment: HotSpot in vitro kinase radiometric assay; format: biochemical
T11 construct: purchased Reaction Biology (HotSpot contract assay)

PEAK1 = target: T12, PEAK1 (Homo sapiens, UniProt Q9H792); experiment: HotSpot in vitro kinase radiometric assay; format: biochemical
T12 construct: purchased Reaction Biology (HotSpot contract assay)

TRKA = target: T13, TRKA (Homo sapiens, UniProt P04629); experiment: HotSpot in vitro kinase radiometric assay; format: biochemical
T13 construct: purchased Reaction Biology (HotSpot contract assay)
How it was run: as §1

PASK = target: T14, PASK (Homo sapiens, UniProt Q96RG2); experiment: HotSpot in vitro kinase radiometric assay; format: biochemical
T14 construct: purchased Reaction Biology (HotSpot contract assay)
How it was run: as §1

MET = tested on: MET; parameters: method as in ChEMBL23 (accessed: 23/08/2018); details: average of reported values; ref ChEMBL23 (accessed: 23/08/2018); cited from earlier work

T12 sequence (Q9H792 whole entry): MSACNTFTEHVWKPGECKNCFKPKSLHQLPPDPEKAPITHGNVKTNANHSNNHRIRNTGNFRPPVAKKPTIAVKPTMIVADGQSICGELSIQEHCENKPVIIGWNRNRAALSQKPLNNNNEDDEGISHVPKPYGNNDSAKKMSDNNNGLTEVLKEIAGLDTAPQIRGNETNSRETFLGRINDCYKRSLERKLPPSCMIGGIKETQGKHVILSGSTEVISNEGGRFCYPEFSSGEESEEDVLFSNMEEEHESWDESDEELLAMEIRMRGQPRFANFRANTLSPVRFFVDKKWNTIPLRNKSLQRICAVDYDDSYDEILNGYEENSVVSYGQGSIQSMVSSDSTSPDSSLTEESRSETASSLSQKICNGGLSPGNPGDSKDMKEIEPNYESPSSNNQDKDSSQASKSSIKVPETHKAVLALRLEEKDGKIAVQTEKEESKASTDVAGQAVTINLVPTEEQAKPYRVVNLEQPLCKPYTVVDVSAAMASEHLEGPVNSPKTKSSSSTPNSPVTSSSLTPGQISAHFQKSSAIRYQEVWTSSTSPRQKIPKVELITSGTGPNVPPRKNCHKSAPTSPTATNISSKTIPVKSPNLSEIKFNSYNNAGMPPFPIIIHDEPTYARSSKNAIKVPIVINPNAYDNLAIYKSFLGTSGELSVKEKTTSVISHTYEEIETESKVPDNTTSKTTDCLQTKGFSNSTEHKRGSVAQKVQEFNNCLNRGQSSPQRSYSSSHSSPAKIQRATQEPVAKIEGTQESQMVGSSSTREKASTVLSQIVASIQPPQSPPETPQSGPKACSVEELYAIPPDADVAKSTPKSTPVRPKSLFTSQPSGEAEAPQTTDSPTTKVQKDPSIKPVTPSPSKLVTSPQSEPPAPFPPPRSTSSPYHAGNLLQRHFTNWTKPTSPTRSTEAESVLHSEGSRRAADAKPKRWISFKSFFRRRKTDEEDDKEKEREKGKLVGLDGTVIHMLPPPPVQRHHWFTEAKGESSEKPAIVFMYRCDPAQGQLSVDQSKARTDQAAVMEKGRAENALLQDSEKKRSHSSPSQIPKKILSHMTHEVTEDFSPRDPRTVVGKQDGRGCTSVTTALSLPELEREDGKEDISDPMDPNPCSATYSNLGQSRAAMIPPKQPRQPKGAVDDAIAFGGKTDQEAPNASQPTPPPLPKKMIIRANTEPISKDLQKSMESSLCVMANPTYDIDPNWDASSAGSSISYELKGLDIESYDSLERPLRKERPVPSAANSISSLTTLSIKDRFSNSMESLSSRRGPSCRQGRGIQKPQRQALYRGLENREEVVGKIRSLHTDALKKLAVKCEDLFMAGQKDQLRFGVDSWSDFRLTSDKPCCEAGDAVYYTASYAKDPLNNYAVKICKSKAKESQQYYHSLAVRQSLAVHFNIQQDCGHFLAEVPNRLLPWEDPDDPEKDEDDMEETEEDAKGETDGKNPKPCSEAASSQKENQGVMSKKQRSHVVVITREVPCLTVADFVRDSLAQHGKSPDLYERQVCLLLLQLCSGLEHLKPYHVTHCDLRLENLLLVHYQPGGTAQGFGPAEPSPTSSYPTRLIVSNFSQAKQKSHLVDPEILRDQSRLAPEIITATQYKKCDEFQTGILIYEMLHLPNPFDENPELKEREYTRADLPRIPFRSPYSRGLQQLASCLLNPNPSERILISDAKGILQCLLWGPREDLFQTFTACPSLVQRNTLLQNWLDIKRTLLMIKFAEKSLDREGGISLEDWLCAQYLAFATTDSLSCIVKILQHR
ABL1, sequence (P00519 whole entry): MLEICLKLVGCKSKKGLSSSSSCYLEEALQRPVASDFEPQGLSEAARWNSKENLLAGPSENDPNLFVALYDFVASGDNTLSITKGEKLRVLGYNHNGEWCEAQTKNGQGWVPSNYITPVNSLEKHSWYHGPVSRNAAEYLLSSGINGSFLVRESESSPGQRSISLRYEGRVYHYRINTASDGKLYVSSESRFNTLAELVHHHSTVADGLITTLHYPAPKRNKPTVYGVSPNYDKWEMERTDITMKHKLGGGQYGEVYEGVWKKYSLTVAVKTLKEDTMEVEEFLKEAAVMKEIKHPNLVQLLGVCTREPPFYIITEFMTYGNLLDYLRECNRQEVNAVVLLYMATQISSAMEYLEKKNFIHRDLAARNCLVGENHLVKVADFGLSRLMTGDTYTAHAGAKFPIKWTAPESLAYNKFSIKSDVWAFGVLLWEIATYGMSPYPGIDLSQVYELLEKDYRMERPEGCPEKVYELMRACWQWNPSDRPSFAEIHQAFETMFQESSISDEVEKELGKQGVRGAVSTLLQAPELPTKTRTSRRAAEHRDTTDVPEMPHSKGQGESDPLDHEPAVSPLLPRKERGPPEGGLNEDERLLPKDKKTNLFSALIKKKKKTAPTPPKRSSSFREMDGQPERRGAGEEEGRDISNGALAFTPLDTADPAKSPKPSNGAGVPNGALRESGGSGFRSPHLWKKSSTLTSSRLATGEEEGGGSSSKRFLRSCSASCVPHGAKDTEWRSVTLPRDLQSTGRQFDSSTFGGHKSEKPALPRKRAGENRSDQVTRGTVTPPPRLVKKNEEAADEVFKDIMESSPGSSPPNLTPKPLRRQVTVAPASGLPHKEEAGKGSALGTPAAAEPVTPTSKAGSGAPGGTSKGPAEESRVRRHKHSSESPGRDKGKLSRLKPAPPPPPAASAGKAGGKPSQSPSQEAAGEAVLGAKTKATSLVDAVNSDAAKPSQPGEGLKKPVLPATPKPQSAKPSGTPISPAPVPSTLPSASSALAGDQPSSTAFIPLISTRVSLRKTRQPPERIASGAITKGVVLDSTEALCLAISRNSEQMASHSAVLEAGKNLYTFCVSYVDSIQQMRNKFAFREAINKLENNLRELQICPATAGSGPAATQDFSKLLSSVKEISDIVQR
T13 sequence (P04629 33-796): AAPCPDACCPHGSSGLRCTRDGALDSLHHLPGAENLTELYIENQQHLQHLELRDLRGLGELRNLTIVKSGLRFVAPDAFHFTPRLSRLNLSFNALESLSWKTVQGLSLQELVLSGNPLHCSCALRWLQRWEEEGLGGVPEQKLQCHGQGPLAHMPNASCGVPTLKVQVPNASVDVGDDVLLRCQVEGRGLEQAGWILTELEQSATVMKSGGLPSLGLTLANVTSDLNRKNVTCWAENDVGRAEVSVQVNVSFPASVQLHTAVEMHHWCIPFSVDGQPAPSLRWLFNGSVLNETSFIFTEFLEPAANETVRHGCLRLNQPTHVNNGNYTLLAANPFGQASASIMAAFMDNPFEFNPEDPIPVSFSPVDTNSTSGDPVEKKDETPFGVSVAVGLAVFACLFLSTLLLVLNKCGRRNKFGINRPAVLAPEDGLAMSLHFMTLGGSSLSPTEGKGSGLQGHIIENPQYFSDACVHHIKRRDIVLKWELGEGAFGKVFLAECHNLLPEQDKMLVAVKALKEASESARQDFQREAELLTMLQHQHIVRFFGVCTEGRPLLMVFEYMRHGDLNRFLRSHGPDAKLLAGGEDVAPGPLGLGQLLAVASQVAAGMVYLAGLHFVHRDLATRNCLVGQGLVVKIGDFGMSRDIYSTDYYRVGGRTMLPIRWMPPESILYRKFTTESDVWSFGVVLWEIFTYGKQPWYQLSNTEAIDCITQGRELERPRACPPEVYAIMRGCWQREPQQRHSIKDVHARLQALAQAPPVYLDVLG
T2 sequence (P07947 whole entry): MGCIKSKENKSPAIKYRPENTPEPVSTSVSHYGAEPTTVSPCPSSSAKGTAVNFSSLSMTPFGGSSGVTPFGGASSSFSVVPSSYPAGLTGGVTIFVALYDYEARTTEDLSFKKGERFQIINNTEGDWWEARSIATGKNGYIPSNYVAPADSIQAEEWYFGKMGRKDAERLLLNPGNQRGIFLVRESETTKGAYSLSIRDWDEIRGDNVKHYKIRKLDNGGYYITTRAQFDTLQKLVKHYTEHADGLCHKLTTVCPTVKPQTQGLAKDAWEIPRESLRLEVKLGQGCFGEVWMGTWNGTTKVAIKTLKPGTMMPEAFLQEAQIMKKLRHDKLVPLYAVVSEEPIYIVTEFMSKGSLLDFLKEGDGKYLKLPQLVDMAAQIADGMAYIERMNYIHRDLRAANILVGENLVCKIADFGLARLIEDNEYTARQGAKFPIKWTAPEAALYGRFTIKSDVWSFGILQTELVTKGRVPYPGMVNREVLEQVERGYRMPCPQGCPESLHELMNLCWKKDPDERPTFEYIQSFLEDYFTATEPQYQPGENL
T1 sequence (P06241 whole entry): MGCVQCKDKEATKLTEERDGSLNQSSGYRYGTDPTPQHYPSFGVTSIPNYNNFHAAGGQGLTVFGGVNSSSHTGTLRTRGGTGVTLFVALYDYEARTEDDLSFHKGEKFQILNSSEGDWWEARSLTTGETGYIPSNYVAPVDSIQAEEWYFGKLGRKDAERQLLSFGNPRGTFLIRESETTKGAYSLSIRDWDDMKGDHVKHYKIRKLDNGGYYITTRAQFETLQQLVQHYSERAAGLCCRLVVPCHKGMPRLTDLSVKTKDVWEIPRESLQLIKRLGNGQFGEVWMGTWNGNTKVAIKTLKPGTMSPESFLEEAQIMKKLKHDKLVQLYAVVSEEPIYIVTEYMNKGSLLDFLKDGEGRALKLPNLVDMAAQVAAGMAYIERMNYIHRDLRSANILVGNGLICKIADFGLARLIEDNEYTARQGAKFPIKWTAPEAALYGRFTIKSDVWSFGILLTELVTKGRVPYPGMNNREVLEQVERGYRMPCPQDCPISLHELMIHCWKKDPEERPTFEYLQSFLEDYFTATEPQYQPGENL

CCc1cc(-c2[nH]nc(C)c2-c2ccc3c(c2)OCCO3)c(O)cc1O [CCT018159]
remaining activity at 10 µM (FYN; FYN, 10uM, ATP 30 uM, Data 1, Data 2, read-out: % Enzyme Activity (relative to DMSO controls)): 31.4% | inhibition at 10 µM (FYN; read-out: % inhibition at 10 uM: FYN, 10 μM, Fig 6C median ± standard deviation (n = 2)): 69% | remaining activity at 10 µM (YES/YES1; YES/YES1, 10uM, ATP 50 uM, Data 1, Data 2, read-out: % Enzyme Activity (relative to DMSO controls)): 92% | inhibition at 10 µM (YES/YES1; read-out: % inhibition at 10 uM: YES, 10 μM, Fig 6C median ± standard deviation (n = 2)): 9 ± 1% | remaining activity at 10 µM (TRKC; TRKC, 10uM, ATP 100 uM, Data 1, Data 2, read-out: % Enzyme Activity (relative to DMSO controls)): 96.1% | inhibition at 10 µM (TRKC; read-out: % inhibition at 10 uM: TRKC, 10 μM, Fig 6C median ± standard deviation (n = 2)): 5 ± 1% | remaining activity at 10 µM (DDR1; DDR1, 10uM, ATP 100 uM, Data 1, Data 2, read-out: % Enzyme Activity (relative to DMSO controls)): 20.1% | inhibition at 10 µM (DDR1; read-out: % inhibition at 10 uM: DDR1, 10 μM, Fig 6C median ± standard deviation (n = 2)): 81% | remaining activity at 10 µM (FGR; FGR, 10uM, ATP 50 uM, Data 1, Data 2, read-out: % Enzyme Activity (relative to DMSO controls)): 26.1% | inhibition at 10 µM (FGR; read-out: % inhibition at 10 uM: FGR, 10 μM, Fig 6C median ± standard deviation (n = 2)): 71 ± 4% | remaining activity at 10 µM (PDK2/PDHK2; PDK2/PDHK2, 10uM, ATP 15 uM, Data 1, Data 2, read-out: % Enzyme Activity (relative to DMSO controls)): 42.8% | inhibition at 10 µM (PDK2/PDHK2; read-out: % inhibition at 10 uM: PDK2, 10 μM, Fig 6C median ± standard deviation (n = 2)): 50 ± 10% | remaining activity at 10 µM (PDK4/PDKH4; PDK4/PDKH4, 10uM, ATP 30 uM, Data 1, Data 2, read-out: % Enzyme Activity (relative to DMSO controls)): 66.3% | inhibition at 10 µM (PDK4/PDKH4; read-out: % inhibition at 10 uM: PDK4, 10 μM, Fig 6C median ± standard deviation (n = 2)): 33 ± 1% | remaining activity at 10 µM (LYN B; LYN B, 10uM, ATP 20 uM, Data 1, Data 2, read-out: % Enzyme Activity (relative to DMSO controls)): 100% | inhibition at 10 µM (LYN B; read-out: % inhibition at 10 uM: LYN B, 10 μM, Fig 6C median ± standard deviation (n = 2)): -1 ± 1% | remaining activity at 10 µM (BLK; BLK, 10uM, ATP 10 uM, Data 1, Data 2, read-out: % Enzyme Activity (relative to DMSO controls)): 15.3% | inhibition at 10 µM (BLK; read-out: % inhibition at 10 uM: BLK, 10 μM, Fig 6C median ± standard deviation (n = 2)): 85 ± 1% | remaining activity at 10 µM (c-Src; c-Src, 10uM, ATP 15 uM, Data 1, Data 2, read-out: % Enzyme Activity (relative to DMSO controls)): 86.2% | inhibition at 10 µM (c-Src; read-out: % inhibition at 10 uM: SRC, 10 μM, Fig 6C median ± standard deviation (n = 2)): 14 ± 1% | remaining activity at 10 µM (LCK; LCK, 10uM, ATP 15 uM, Data 1, Data 2, read-out: % Enzyme Activity (relative to DMSO controls)): 61.4% | inhibition at 10 µM (LCK; read-out: % inhibition at 10 uM: LCK, 10 μM, Fig 6C median ± standard deviation (n = 2)): 36 ± 4% | pActivity, PIM1 (PIM1): 5.8 | pActivity, LTK (LTK): 5.6 | pActivity, HSP90AB1 (HSP90AB1): 6.55 | remaining activity at 10 µM (ABL1; ABL1, 10uM, ATP 40 uM, Data 1, Data 2, read-out: % Enzyme Activity (relative to DMSO controls)): 80% | inhibition at 10 µM (ABL1; read-out: % inhibition at 10 uM: ABL1, 10 μM, Fig 6C median ± standard deviation (n = 2)): 19 ± 2% | remaining activity at 10 µM (ABL2/ARG; ABL2/ARG, 10uM, ATP 30 uM, Data 1, Data 2, read-out: % Enzyme Activity (relative to DMSO controls)): 63.6% | inhibition at 10 µM (ABL2/ARG; read-out: % inhibition at 10 uM: ABL2, 10 μM, Fig 6C median ± standard deviation (n = 2)): 32 ± 7% | % inhibition at 10 uM: PEAK1 (PEAK1; 10 μM, Fig 6C median ± standard deviation (n = 2)): 83 ± 1% | remaining activity at 10 µM (PEAK1; PEAK1, 10uM, ATP 30 uM, Data 1, Data 2, read-out: % Enzyme Activity (relative to DMSO controls)): 16.4% | inhibition at 10 µM (PEAK1; read-out: % inhibition at 10 uM: PEAK1, 10 μM, Fig 6C median ± standard deviation (n = 2)): > 70% | remaining activity at 10 µM (TRKA; TRKA, 10uM, ATP 100 uM, Data 1, Data 2, read-out: % Enzyme Activity (relative to DMSO controls)): 34.6% | inhibition at 10 µM (TRKA; read-out: % inhibition at 10 uM: TRKA, 10 μM, Fig 6C median ± standard deviation (n = 2)): 66 ± 1% | remaining activity at 10 µM (PASK; PASK, 10uM, ATP 50 uM, Data 1, Data 2, read-out: % Enzyme Activity (relative to DMSO controls)): 101% | inhibition at 10 µM (PASK; read-out: % inhibition at 10 uM: PASK, 10 μM, Fig 6C median ± standard deviation (n = 2)): 0% | pActivity, MET (MET): 5.6

From publication PMC8550792, “Evolution of kinase polypharmacology across HSP90 drug discovery” (Cell Chemical Biology, 2021)
